Reference: patent publication US20200299612A1, “HIGH PERFORMING, HIGH IMPACT BLOOM ACCORD” (International Flavors & Fragrances Inc., priority 2016, published 2020)

Experiments:
Assay in all cases: Antibacterial activity
s. aureos = system: s. aureos
Description: (§1) The fragrance accords can contain antibacterial ingredients described above. See U.S. Pat. No. 6,495,512 for a list of suitable antibacterial ingredients.

e. hirae = system: e. hirae
Description: as §1

e. coli = system: e. coli
Description: as §1

Measured: antibacterial activity

COc1ccc(C)cc1 [1-methoxy-4-methylbenzene]
high antibacterial activity: all assays above

C=CC(C)(O)CCC=C(C)C (stereo not drawn) [3,7-dimethylocta-1,6-dien-3-ol]
high antibacterial activity: all assays above
